From patent US20220289794A1, “SYNTHETIC ANTIMICROBIAL PEPTIDES” (priority 2019, published 2022) come the findings set out here.

Values after ≈ are worked out from the molar mass of the structure shown. Read-outs that look alike come from different tables or passages of the source. Non-standard residues stand in square brackets, D forms with d. Residues, ends and D or L forms follow the SMILES beside them. Dip = N[C@H](C(=O)O)C(c1ccccc1)c1ccccc1

One data set deals with B. subtilis (ATCC-6633). The data set can be described thus: Broad-spectrum activity against Gram-Positive bacteria (MIC). The data set is classed as cell-based. On the set-up: unit not given here.
A further data set deals with E. coli (ATCC BAA-2452). As to the kind of experiment: Broad-spectrum activity against Gram-Negative bacteria (MIC). It is filed as cell-based. Conditions: Table 16, Gram-negative panel.
The test system of a further data set is B. cereus (ATCC-13061). The data set can be described thus: Broad-spectrum activity against Gram-Positive bacteria (MIC). It is filed as cell-based. Also noted: unit not given here.
Data set [1] concerns A. baumannii (ATCC BAA-1605). The data set can be described thus: Broad-spectrum activity against Gram-Negative bacteria (MIC). The data set is classed as cell-based. Conditions: Table 16, Gram-negative panel.
Data set [2] relates to P. aeruginosa (ATCC 10145). The data set is described as above. It is filed as cell-based. Conditions: Table 16, Gram-negative panel.
Data set [3] has as its system P. aeruginosa (ATCC BAA-1744). The description is as above. It is filed as cell-based. Conditions: Table 16, Gram-negative panel.
Data set [4] deals with Methicillin-resistant Staphylococcus aureus MRSA (ATCC BAA-1556).
For data set [5], the system named is Pseudomonas aeruginosa (ATCC 27883).
For data set [6], the system named is Escherichia coli (ATCC 25922).
The test system of data set [7] is Klebsiella pneumoniae (ATCC BAA-1705). The note with it: Table 16, Gram-negative panel.
Data set [8] relates to Enterococcus faecium ATCC 27270. Conditions: E. faecium ATCC 27270.
For data set [9], the system named is Enterococcus faecium ATCC 700221. Conditions: E. faecium ATCC 700221.
In data set [10] the test system is Klebsiella pneumoniae ATCC 13883. Conditions: Table 16, Gram-negative panel.
Data set [11] deals with Enterococcus faecalis ATCC 29212. The note with it: E. faecalis ATCC 29212.
Data set [12] has as its system Enterococcus faecalis ATCC 51575. Conditions: E. faecalis ATCC 51575.
For data set [13], the system named is Streptococcus pneumoniae ATCC 49619. Conditions: S. pneumoniae ATCC 49619.
Data set [14] deals with Streptococcus pneumoniae ATCC 51938. The note with it: S. pneumoniae ATCC 51938.
The next data set relates to human red blood cells. On the set-up: unit not given beside the values.

In the case of “c[arg-arg-arg-arg-Dip-Trp-Dip] [IFX-099]”, in the data set with B. subtilis (ATCC-6633), the “Broad-spectrum activity B. subtilis (ATCC-6633)” value amounted to 1.5. For the same molecule, in the data set with E. coli (ATCC BAA-2452), the MIC E. coli (ATCC BAA-2452) was 25 µg/mL. The “Broad-spectrum activity B. cereus (ATCC-13061)” value with B. cereus (ATCC-13061) is on record as 3.1. The MIC A. baumannii (ATCC BAA-1605) in data set [1] stood at 12.5 µg/mL. This molecule gave an MIC P. aeruginosa (ATCC 10145) in data set [2] of 25 µg/mL. In data set [3], this molecule registered an MIC P. aeruginosa (ATCC BAA-1744) of 25 µg/mL. In addition, the “MIC MRSA ATCC BAA-1556” value in data set [4] (MRSA ATCC BAA-1556) stood at 1.5 µg/mL. Moreover, in the data set on S. aureus ATCC 29213 (S. aureus ATCC 29213), the “MIC S. aureus ATCC 29213” value turned out to be 1.5 µg/mL. In addition, the “MIC P. aeruginosa ATCC 27883” value in data set [5] (P. aeruginosa ATCC 27883) worked out at 12.5 µg/mL. Also, the “MIC E. coli ATCC 25922” value in data set [6] (E. coli ATCC 25922) turned out to be 6.2 µg/mL. The molecule further had an MIC K. pneumonia (ATCC BAA-1705) in data set [7] of 25 µg/mL. Also, the “Broad-spectrum activity E. faecium (ATCC 27270)” value in [8] was 3.1. The “Broad-spectrum activity E. faecium (ATCC 700221)” value in data set [9] was 6.2. The MIC K. pneumonia (ATCC 13883) in [10] is 50 µg/mL. Moreover, in data set [11], the “Broad-spectrum activity E. faecalis (ATCC 29212)” value amounted to 6.2. In data set [12], the “Broad-spectrum activity E. faecalis (ATCC 51575)” value came out at 12.5. For the same molecule, the “Broad-spectrum activity S. pneumoniae (ATCC 49619)” value in data set [13] is recorded as 25. For the same molecule, the “Broad-spectrum activity S. pneumoniae (ATCC 51938)” value in data set [14] is reported as 12.5.

In the case of “c[Arg-Arg-Arg-arg-Dip-Dip-Dip] [IFX-063]”, in the data set with B. subtilis (ATCC-6633), the “Broad-spectrum activity B. subtilis (ATCC-6633)” value is 1.5. Also, in the data set with E. coli (ATCC BAA-2452), the MIC E. coli (ATCC BAA-2452) worked out at 12.5 µg/mL. Moreover, the “Broad-spectrum activity B. cereus (ATCC-13061)” value with B. cereus (ATCC-13061) is 3.1. The molecule further came in with an MIC A. baumannii (ATCC BAA-1605) in data set [1] of 6.2 µg/mL. In data set [2], this molecule registered an MIC P. aeruginosa (ATCC 10145) of 25 µg/mL. This molecule had an MIC P. aeruginosa (ATCC BAA-1744) in data set [3] of 25 µg/mL. In addition, the “MIC MRSA ATCC BAA-1556” value in data set [4] (MRSA ATCC BAA-1556) was found to be 3.1 µg/mL. The “MIC S. aureus ATCC 29213” value against S. aureus ATCC 29213 (S. aureus ATCC 29213) was 3.1 µg/mL. Further, the “MIC P. aeruginosa ATCC 27883” value in data set [5] (P. aeruginosa ATCC 27883) was found to be 12.5 µg/mL. In addition, the “MIC E. coli ATCC 25922” value in data set [6] (E. coli ATCC 25922) turned out to be 12.5 µg/mL. In addition, the MIC K. pneumonia (ATCC BAA-1705) in data set [7] came out at 12.5 µg/mL. In addition, in data set [8], the “Broad-spectrum activity E. faecium (ATCC 27270)” value is listed as 3.1. Besides, the “Broad-spectrum activity E. faecium (ATCC 700221)” value in [9] was 1.5. For the same molecule, the MIC K. pneumonia (ATCC 13883) in data set [10] turned out to be 50 µg/mL. For the same molecule, the “Broad-spectrum activity E. faecalis (ATCC 29212)” value in data set [11] came out at 6.2. Also, the “Broad-spectrum activity E. faecalis (ATCC 51575)” value in [12] is listed as 12.5. For the same molecule, the “Broad-spectrum activity S. pneumoniae (ATCC 49619)” value in data set [13] is listed as 25. Further, the “Broad-spectrum activity S. pneumoniae (ATCC 51938)” value in [14] is 12.5.

“c[Arg-Arg-Arg-Arg-naI-trp-naI] [IFX-143]”: the “Broad-spectrum activity B. subtilis (ATCC-6633)” value in the data set on B. subtilis (ATCC-6633) came to 3.1. Also, in the data set with E. coli (ATCC BAA-2452), the MIC E. coli (ATCC BAA-2452) is 25 µg/mL. For the same molecule, the “Broad-spectrum activity B. cereus (ATCC-13061)” value in the data set with B. cereus (ATCC-13061) was found to be 6.2. Also, in data set [1], the MIC A. baumannii (ATCC BAA-1605) is 12.5 µg/mL. Further, in data set [2], the MIC P. aeruginosa (ATCC 10145) came to 50 µg/mL. The molecule also returned an MIC P. aeruginosa (ATCC BAA-1744) in data set [3] of 25 µg/mL. In data set [4] (MRSA ATCC BAA-1556), the “MIC MRSA ATCC BAA-1556” value came to 3.1 µg/mL. Also, the “MIC S. aureus ATCC 29213” value in the data set on S. aureus ATCC 29213 (S. aureus ATCC 29213) amounted to 1.5 µg/mL. Besides, the “MIC P. aeruginosa ATCC 27883” value in [5] (P. aeruginosa ATCC 27883) was 64 µg/mL. In data set [6] (E. coli ATCC 25922), the “MIC E. coli ATCC 25922” value amounted to 16 µg/mL. Besides, the MIC K. pneumonia (ATCC BAA-1705) in data set [7] amounted to 25 µg/mL. In addition, in data set [8], the “Broad-spectrum activity E. faecium (ATCC 27270)” value came to 3.1. Also, the “Broad-spectrum activity E. faecium (ATCC 700221)” value in data set [9] was 3.1. The same molecule showed an MIC K. pneumonia (ATCC 13883) in data set [10] of over 50 µg/mL. In data set [11], the “Broad-spectrum activity E. faecalis (ATCC 29212)” value came to 6.2. Moreover, the “Broad-spectrum activity E. faecalis (ATCC 51575)” value in data set [12] was 12.5. In addition, the “Broad-spectrum activity S. pneumoniae (ATCC 49619)” value in [13] was 50. Besides, the “Broad-spectrum activity S. pneumoniae (ATCC 51938)” value in data set [14] is 12.5.

On to `N=C(N)NCCC[C@@H]1NC(=O)[C@H](CCCNC(=N)N)NC(=O)[C@H](C(c2ccccc2)c2ccccc2)NC(=O)[C@H](C(c2ccccc2)c2ccccc2)NC(=O)[C@H](CCCNC(=N)N)NC(=O)[C@H](CCCNC(=N)N)NC(=O)[C@H](C(c2ccccc2)c2ccccc2)NC1=O` [IFX-017, c[Arg-Arg-Dip-Dip-Arg-Arg-Dip]] (cyclo(R[Dip]RR[Dip][Dip]R)), for which, in the data set on B. subtilis (ATCC-6633), the “Broad-spectrum activity B. subtilis (ATCC-6633)” value came out at 1.5. Further, in the data set with E. coli (ATCC BAA-2452), the MIC E. coli (ATCC BAA-2452) amounted to 12.5 µg/mL (≈ 9.66 µM). For the same molecule, in the data set with B. cereus (ATCC-13061), the “Broad-spectrum activity B. cereus (ATCC-13061)” value worked out at 6.2. This molecule also returned an MIC A. baumannii (ATCC BAA-1605) in data set [1] of 12.5 µg/mL (≈ 9.66 µM). The MIC P. aeruginosa (ATCC 10145) in data set [2] was found to be 25 µg/mL (≈ 19.3 µM). The molecule also returned an MIC P. aeruginosa (ATCC BAA-1744) in data set [3] of 25 µg/mL (≈ 19.3 µM). In [4] (ATCC BAA-1556), the “MIC MRSA ATCC BAA-1556” value came out at 12.5 µg/mL (≈ 9.66 µM). In addition, the “MIC S. aureus ATCC 29213” value in the data set on S. aureus ATCC 29213 (ATCC 29213) was determined as 6.2 µg/mL (≈ 4.79 µM). In addition, in [5] (ATCC 27883), the “MIC P. aeruginosa ATCC 27883” value is over 100 µg/mL. In addition, in data set [6] (ATCC 25922), the “MIC E. coli ATCC 25922” value is over 100 µg/mL. In data set [7], the MIC K. pneumonia (ATCC BAA-1705) was determined as 25 µg/mL (≈ 19.3 µM). Moreover, the HC50 in the data set on human red blood cells amounted to 290. Further, in [8], the “Broad-spectrum activity E. faecium (ATCC 27270)” value is 3.1. In data set [9], the “Broad-spectrum activity E. faecium (ATCC 700221)” value amounted to 1.5. Moreover, the MIC K. pneumonia (ATCC 13883) in [10] was 50 µg/mL (≈ 38.6 µM). For the same molecule, the “Broad-spectrum activity E. faecalis (ATCC 29212)” value in data set [11] is reported as 12.5. Also, the “Broad-spectrum activity S. pneumoniae (ATCC 49619)” value in data set [13] came out at 50. Also, in data set [14], the “Broad-spectrum activity S. pneumoniae (ATCC 51938)” value is 12.5.
